Measurements as given in patent US12139472B2, “Inhibitors of advanced glycation end products” (priority 2019, dated 2024).

Tested on: CYP3A
Type: in vitro ADME, human
Details: HLM
Source text: Compound 5 (PTG-630 free base) and 7 additional compounds for CYP3A P450 inhibition.
Imidazole (and benzimidazole) containing drugs are ubiquitous in pharmacological practice; however, drug-drug interactions (DDI) have been observed with some imidazole-containing classes, such as the antifungal azoles typified by ketoconazole. It is believed that the imidazole moiety accounts for their ability to inhibit CYP3A, the major DDI enzyme that metabolizes up to 50% of common drugs. The compounds of the disclosure incorporate an imidazole moiety attached to a pyridine ring via the imidazole C-2. They all share an imidazo-hydroxypyridine theme that can bind redox metal ions, while differing in the nature of the X side-chain. The potential of the compounds of the disclosure for DDI was evaluated by screening their inhibition of CYP3A.
Two studies were conducted in human liver microsomes (HLM). Lead candidate PTG-630 was tested using the Eurofins G232 panel (Drug Metab Dispos. 2001 January; 29(1):23-9), where inhibition was measured against seven CYP enzymes; CYP3A4 was tested using two different substrates, midazolam and testosterone. In a second study, inhibition of CYP3A4 (midazolam substrate only) was compared for 8 compounds of interest. The test protocol involved one-point measurements in duplicate, where inhibition was measured at a fixed 10 μM concentration of candidate inhibitors. In all cases, the substrate for each CYP enzyme was at a concentration equal to its specific Km value that was independently obtained from an 8-point dose-response study. Based on the observed value for percent inhibition for each test compound, we calculated of an IC50 assuming a competitive mode of inhibition. If percent inhibition for an inhibitor at a concentration of [I] is denoted by P, then: IC50=[I]*(100−P)/P In the single-point assay, [I] is 10 μM. If measured inhibition is 10%, then IC50=10*(100-10)/10=90 μM. […] As discussed in Lin et al. (J Pharm Sci. 2007 September; 96(9):2485-93; doi: 10.1002/jps.20884), CYP inhibition is broadly interpreted as being “potent” if IC50<1 μM, “moderate” if 1 μM<IC50<10 μM, and “weak” if IC50>10 μM.

Cc1ncc(CN2CCCCCC2)c(-c2ncc[nH]2)c1O [PTG-670] was tested, and the “Estimated IC50” value (midazolam, from one-point % inhibition at 10 μM, IC50=[I]*(100−P)/P) was “— None” and the P % inhib (substrate midazolam at Km, Inhib Conc. 1.0E−05 M) was −1.1%.
